Measured values reported in patent US20220008409A1, “CANCER COMBINATION THERAPY USING QUINOLINE CARBOXAMIDE DERIVATIVE” (KABUSHIKI KAISHA YAKULT HONSHA, priority 2018, published 2022).

Key:
MDA-MB-231 cells = assay: Combination effect of STX-1159 and mTOR inhibitor, WST-8 assay; format: cell-based, Human; settings: in combination with STX-1159, 48 hours
Description: Human breast cell line MDA-MB-231 cells or MDA-MB-468 cells (in the case of rapamycin) were inoculated on a 96-well plate to 2.5×10^3/100 μL/well or 1.0×10^3/100 μL/well, and cultured under conditions of 5% CO2 and 37° C. To the control group was added DMSO, so as to be a final concentration of 0.05%. Subsequently, the cells were cultured under conditions of 5% CO2 and 37° C. for 48 hours, and the viable cell count was then evaluated by WST-8 assay. […] The absorbance of water-soluble formazan generated by enzymatic activity of mitochondria in cells was measured at 450 nm using a microplate reader (Molecular Devices, Model: SpectraMax Plus).
Human breast cell line MDA-MB-231 cells or MDA-MB-468 cells (in the case of rapamycin) were inoculated on a 96-well plate so as to be 2.5×10^3/100 μL/well or 1.0×10^3/100 μL/well, respectively. The cells were incubated in a CO2 incubator at 37° C. After 24 hours, the supernatant was discarded, and 80 μL of a culture medium for assay was added. […] The mixture was left standing in a CO2 incubator at 37° C. for 48 hours, the supernatant was then removed, and the mixture was washed once with 100 μL of PBS(−). A WST-8 solution diluted by 10 times with the medium for assay was added at 100 μL/well, and the absorbance was measured at a wavelength of 450 nm using a plate reader. CI was calculated from the measured value.

NCI-H2228 = assay: Combination effect by median-effect method, WST-8 assay; format: cell-based, Human; settings: in combination with STX-1159, 72 hours
Excerpt: (§1) NCI-H2228, NCI-H1975, SK-BR-3, Hep3B, MCF-7, Caov-3, A2058, K562 and SUP-B15 were purchased from American Type Culture Collection, SAS and HuH-7 were purchased from National Institutes of Biomedical Innovation, Health and Nutrition, and K1, FTC-133 and Ishikawa were purchased European Collection of Authenticated Cell Cultures. […] Fetal bovine serum (hereinafter, abbreviated as FBS) and MCDB 105 culture medium were purchased from Sigma Aldrich (Cat. Nos. 172012 and 117-500), and RMPI1640 culture medium, DMEM medium, Ham's F-12 medium, MEM medium and IMDM culture medium were purchased Thermo Fisher Scientific (Cat. Nos. A1049101, 11995-065, 11765-054, 11095-080 and 12440-053).
(§2) The agents were singly added one day after the cells were inoculated. […] The absorbance of water-soluble formazan generated by enzymatic activity of mitochondria in cells was measured at 450 nm using a microplate reader (Molecular Devices, Model: SpectraMax Plus). This was evaluated as the viable cell count to calculate a 50% cell growth inhibitory concentration (hereinafter, abbreviated as IC50). The reference dose of each agent was set based on IC50 (Table 3).
(§3) One day after the cells were inoculated, for single groups, STX-1159 and the agents were each added so as to be a final concentration which is ¼ times, ½ times, 1 time, 2 times or 4 times the reference dose, and for combination groups, STX-1159 and the agents were added so as to be a final concentration where STX-1159 and the agents combined were each ¼ times, ½ times, 1 time, 2 times or 4 times the reference dose. […] The fraction affected (hereinafter, abbreviated as fa) was calculated from the following expression:
(§4) fa=1−(viable cell count in agent exposure group)/(viable cell count in control group).
(§5) By a median-effect method using combination effect analyzing software CalcuSyn (HULINKS), the combination index (hereinafter, abbreviated as CI) was calculated from fa obtained when STX-1159 and the agents were exposed alone or in combination. Evaluation of the combination effect was based on grading by CI in Table 4. In calculation of CI, the average of the values from two or more experiments was employed.

[1] = Combination effect by median-effect method, summary over the cell lines of Example 1; format: cell-based; settings: in combination with STX-1159; summary of Table 5
Description: The fraction affected (hereinafter, abbreviated as fa) was calculated from the following expression: fa=1-(viable cell count in agent exposure group)/(viable cell count in control group). […] Evaluation of the combination effect was based on grading by CI in Table 4. In calculation of CI, the average of the values from two or more experiments was employed.

A2058 = assay: Combination effect by median-effect method, WST-8 assay; format: cell-based, Human; settings: in combination with STX-1159, 72 hours
Excerpt: as §1, §2, §3, §4, §5

K562 = assay: as above; format: cell-based, Human; settings: in combination with STX-1159, 48 hours
Excerpt: as §1
(§6) The cells were inoculated on a 96-well plate to the density shown in Table 2, and were cultured under conditions of 5% CO2 and 37° C. The agents were singly added one day after the cells were inoculated. To the control group was added DMSO, so as to be a final concentration of 0.05%. Subsequently, the cells were cultured under conditions of 5% CO2 and 37° C. for the time shown in Table 2, and the number living cells was evaluated by WST-8 assay. That is, 10 μL of a WST-8 kit solution (Kishida Chemical Co., ltd, Cat. No. 260-96162) was added to each well, and the cells were cultured under conditions of 5% CO2 and 37° C. for 1 to 2 hours. The absorbance of water-soluble formazan generated by enzymatic activity of mitochondria in cells was measured at 450 nm using a microplate reader (Molecular Devices, Model: SpectraMax Plus). This was evaluated as the viable cell count to calculate a 50% cell growth inhibitory concentration (hereinafter, abbreviated as IC50).
(§7) The cells were inoculated on a 96-well plate so as to be the density shown in Table 2, and were cultured under conditions of 5% CO2 and 37° C. One day after the cells were inoculated, for single groups, STX-1159 and the agents were each added so as to be a final concentration which is ¼ times, ½ times, 1 time, 2 times or 4 times the reference dose, and for combination groups, STX-1159 and the agents were added so as to be a final concentration where STX-1159 and the agents combined were each ¼ times, ½ times, 1 time, 2 times or 4 times the reference dose. To the control group was added DMSO, so as to be a final concentration of 0.1%. Subsequently, the cells were cultured under conditions of 5% CO2 and 37° C. for the time shown in Table 2, and the number living cells was measured by WST-8 assay. The fraction affected (hereinafter, abbreviated as fa) was calculated from the following expression:
as §4, §5

SUP-B15 = assay: as above; format: cell-based; settings: in combination with STX-1159, 72 hours
Excerpt: as §1, §6
as §7, with “expression: […]” for “expression:”
By a median-effect method using combination effect analyzing software CalcuSyn (HULINKS), the combination index (hereinafter, abbreviated as CI) was calculated from fa obtained when STX-1159 and the agents were exposed alone or in combination. […]

K1 = assay: as above; format: cell-based, Human; settings: in combination with STX-1159, 72 hours
Excerpt: as §1, §2, §3, §4, §5

FTC-133 = settings: in combination with STX-1159, 72 hours
Excerpt: as §1, §6, §7, §4, §5

| Structure (SMILES) | CI (MDA-MB-231 cells) | Combination effect (MDA-MB-231 cells) | further results |
| --- | --- | --- | --- |
| CNC(=O)c1cccc(-c2ccc3c(N4CCOC[C@@H]4C)nc(N4CCOC[C@@H]4C)nc3n2)c1 [AZD2014] | 0.51 | Synergetic effect (0.3 < CI ≤ 0.7) |  |
| COc1ccc(-c2ccc3c(N4CCOC[C@@H]4C)nc(N4CCOC[C@@H]4C)nc3n2)cc1CO [AZD8055] | 0.36 | Synergetic effect (0.3 < CI ≤ 0.7) |  |
| Cc1cc(Nc2ncc(Cl)c(Nc3ccccc3S(=O)(=O)C(C)C)n2)c(OC(C)C)cc1C1CCNCC1 [Ceritinib, ceritinib] |  |  | CI (NCI-H2228): 0.34; Combination effect (NCI-H2228): Synergetic effect (0.3 < CI ≤ 0.7); combination effect by the median-effect method [1]: synergetic effect |
| C[C@@H](Oc1cc(-c2cnn(C3CCNCC3)c2)cnc1N)c1c(Cl)ccc(F)c1Cl [Crizotinib] |  |  | CI (NCI-H2228): 0.50; Combination effect (NCI-H2228): Synergetic effect (0.3 < CI ≤ 0.7); combination effect by the median-effect method [1]: synergetic effect |
| CC(C)(C)c1nc(-c2cccc(NS(=O)(=O)c3c(F)cccc3F)c2F)c(-c2ccnc(N)n2)s1 [Dabrafenib, dabrafenib] |  |  | CI (A2058): 0.73; Combination effect (A2058): Moderate synergetic effect (0.7 < CI ≤ 0.85); combination effect by the median-effect method [1]: synergetic effect |
| Cc1nc(Nc2ncc(C(=O)Nc3c(C)cccc3Cl)s2)cc(N2CCN(CCO)CC2)n1 [Dasatinib, dasatinib] |  |  | CI (K562): 0.78; Combination effect (K562): Moderate synergetic effect (0.7 < CI ≤ 0.85); CI (SUP-B15): 0.71; Combination effect (SUP-B15): Moderate synergetic effect (0.7 < CI ≤ 0.85) |
| Cc1c(CN2CCN(C(=O)[C@H](C)O)CC2)sc2c(N3CCOCC3)nc(-c3cnc(N)nc3)nc12 [GDC-0980(RG7422)] | 0.86 | Light synergetic effect (0.85 < CI ≤ 0.9) |  |
| O=C1NC(=O)/C(=C/c2ccc3nccc(-c4ccncc4)c3c2)S1 [GSK1059615] | 0.64 | Synergetic effect (0.3 < CI ≤ 0.7) |  |
| COc1ncc(-c2ccc3nccc(-c4ccnnc4)c3c2)cc1NS(=O)(=O)c1ccc(F)cc1F [GSK2126458] | 0.63 | Synergetic effect (0.3 < CI ≤ 0.7) |  |
| CC(C)n1nc(-c2ccc3oc(N)nc3c2)c2c(N)ncnc21 [INK 128] | 0.56 | Synergetic effect (0.3 < CI ≤ 0.7) |  |
| Cc1ccc(NC(=O)c2ccc(CN3CCN(C)CC3)cc2)cc1Nc1nccc(-c2cccnc2)n1 [Imatinib] |  |  | CI (K562): 0.83; Combination effect (K562): Moderate synergetic effect (0.7 < CI ≤ 0.85); CI (SUP-B15): 0.85; Combination effect (SUP-B15): Moderate synergetic effect (0.7 < CI ≤ 0.85); combination effect by the median-effect method [1]: synergetic effect |
| COc1ccc(-c2ccc3c(N4CCOCC4)nc(N4C[C@@H](C)O[C@@H](C)C4)nc3n2)cc1CO [KU-0063794] | 0.36 | Synergetic effect (0.3 < CI ≤ 0.7) |  |
| COc1cccc2cc(-c3nc([C@H]4CC[C@H](C(=O)O)CC4)n4ncnc(N)c34)[nH]c12 [OSI-027] | 0.49 | Synergetic effect (0.3 < CI ≤ 0.7) |  |
| COc1ccc(-c2cc3c(C)nc(N)nc3n([C@H]3CC[C@H](OCCO)CC3)c2=O)cn1 [PF-04691502] | 0.73 | Moderate synergetic effect (0.7 < CI ≤ 0.85) |  |
| CN(C)C1CCN(C(=O)c2ccc(NC(=O)Nc3ccc(-c4nc(N5CCOCC5)nc(N5CCOCC5)n4)cc3)cc2)CC1 [PF-05212384(PKI-587)] | 0.63 | Synergetic effect (0.3 < CI ≤ 0.7) |  |
| Oc1cccc(-c2nc(N3CCOCC3)c3oc4ncccc4c3n2)c1 [PI-103] | 0.60 | Synergetic effect (0.3 < CI ≤ 0.7) |  |
| CC(C)n1nc(-c2cc3cc(O)ccc3[nH]2)c2c(N)ncnc21 [PP242] | 0.84 | Moderate synergetic effect (0.7 < CI ≤ 0.85) |  |
| Nc1ncnc2c1c(-c1cnc3[nH]ccc3c1)nn2C1CCCC1 [PP-121] | 0.88 | Light synergetic effect (0.85 < CI ≤ 0.9) |  |
| CCC(=O)N1CCN(c2ccc(-n3c(=O)ccc4cnc5ccc(-c6cnc7ccccc7c6)cc5c43)cc2C(F)(F)F)CC1 [Torin 1] | 0.68 | Synergetic effect (0.3 < CI ≤ 0.7) |  |
| Nc1ccc(-c2ccc3ncc4ccc(=O)n(-c5cccc(C(F)(F)F)c5)c4c3c2)cn1 [Torin 2] | 0.66 | Synergetic effect (0.3 < CI ≤ 0.7) |  |
| CC(=O)Nc1cccc(-n2c(=O)n(C3CC3)c(=O)c3c(Nc4ccc(I)cc4F)n(C)c(=O)c(C)c32)c1 [Trametinib, trametinib] |  |  | CI (A2058): 0.78; Combination effect (A2058): Moderate synergetic effect (0.7 < CI ≤ 0.85) |
| COc1cc2c(Nc3ccc(Br)cc3F)ncnc2cc1OCC1CCN(C)CC1 [Vandetanib, vandetanib] |  |  | CI (K1): 0.69; Combination effect (K1): Synergetic effect (0.3 < CI ≤ 0.7); CI (FTC-133): 0.75; Combination effect (FTC-133): Moderate synergetic effect (0.7 < CI ≤ 0.85) |
| c1cncc(CN2CCC(n3ncc4c(N5CCOCC5)nc(-c5ccc6[nH]ccc6c5)nc43)CC2)c1 [WAY-600] | 0.64 | Synergetic effect (0.3 < CI ≤ 0.7) |  |
| COC(=O)Nc1ccc(-c2nc(N3CCOCC3)c3cnn(C4CCN(Cc5cccnc5)CC4)c3n2)cc1 [WYE-687] | 0.85 | Moderate synergetic effect (0.7 < CI ≤ 0.85) |  |
| CNC(=O)Nc1ccc(-c2nc(N3CC4CCC(C3)O4)c3cnn(C4CCC5(CC4)OCCO5)c3n2)cc1 [WYE-125132] | 0.40 | Synergetic effect (0.3 < CI ≤ 0.7) |  |
